Strand notation (5' to 3'): a small letter for the sugar, then the base; units joined by * are phosphorothioate-linked, units joined directly phosphodiester-linked; [ ] holds rarer units or linkages, { } end groups; capitals alone tell only the bases. e = 2'-O-(2-methoxyethyl) (MOE); [5mC] = 5-methylcytosine; d = 2'-deoxy (DNA)
How the values were obtained:
Format in all cases: cell-based
human Factor 11 mRNA [1] = experiment: Antisense inhibition of human Factor 11 in HepG2 cells by microwalk gapmers, lipofectin, 75 nM (Example 3)
In short: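 HepG2 cells (10,000/well) were transfected via lipofectin with 75 nM 20-mer MOE gapmers (phosphorothioate, 5-methyl-C) for about 24 h. Factor 11 mRNA was measured by qRT-PCR, normalized to RIBOGREEN total RNA, and given as percent inhibition versus untreated cells.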

human Factor 11 mRNA [2] = experiment: Antisense inhibition of human Factor 11 in HepG2 cells, lipofectin, 75 nM (Example 1); details: 75 nM antisense oligonucleotide, ~24 h, relative to untreated control cells
In short: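 HepG2 cells transfected via lipofectin with 75 nM antisense oligonucleotide (5-10-5 MOE gapmers, 20-mers, phosphorothioate, 5-methylcytidines), treated ~24 h. Factor 11 mRNA quantified by real-time PCR, normalised to RIBOGREEN total RNA; percent inhibition versus untreated cells.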

human Factor 11 mRNA [3] = experiment: Dose-dependent inhibition of human Factor 11 in HepG2 cells, lipofectin 9.375-75 nM (Example 4)
In short: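 HepG2 cells transfected via lipofectin with antisense oligonucleotide at 9.375, 18.75, 37.5 or 75 nM for about 16 h. Factor 11 mRNA quantified by real-time RT-PCR (primer probe set RTS 2966) and normalized to total RNA (RIBOGREEN). Results expressed as percent inhibition versus untreated cells.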

human Factor 11 mRNA [4] = experiment: Dose-dependent inhibition of human Factor 11 in HepG2 cells, electroporation 0.7-20 uM (Example 4)
In short: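 HepG2 cells electroporated with antisense gapmers at 0.7, 2.2, 6.7 and 20 μM, treated ~16 h. Factor 11 mRNA quantified by qRT-PCR (primer probe set RTS 2966), normalised to RIBOGREEN total RNA; expressed as percent inhibition versus untreated control cells.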

[5] = gapmers targeted to SEQ ID NO: 1
[6] = gapmers targeted to SEQ ID NO: 2

## 412204 (antisense eT*eT*e[5mC]*eA*eT*dG*dT*d[5mC]*dT*dA*dG*dG*dT*d[5mC]*d[5mC]*eA*e[5mC]*eA*eT*eA) [compound 412204]
Human Factor 11 mRNA [1]; HepG2, lipofectin, ~24 h, gapmers targeted to nucleobases 656 to 704 of SEQ ID NO: 1
  % inhibition: 76%
Human Factor 11 mRNA [2]; [5]
  % inhibition: 74%

## 412215 (antisense eA*eT*eT*e[5mC]*eT*dT*dT*dG*dG*dG*d[5mC]*d[5mC]*dA*dT*dT*e[5mC]*e[5mC]*eT*eG*eG) [compound 412215]
Human Factor 11 mRNA [1]; HepG2 cells, lipofectin, gapmers targeted to nucleobases 1062 to 1091 of SEQ ID NO: 1
  % inhibition: 82%
Human Factor 11 mRNA [2]; [5]
  % inhibition: 81%

## 413474 (antisense eA*eG*e[5mC]*eA*eA*d[5mC]*d[5mC]*dG*dG*dG*dA*dT*dG*dA*dT*eG*eA*eG*eT*eG) [compound 413474]
Human Factor 11 mRNA [1]; HepG2 cells, lipofectin, gapmers targeted to nucleobases 1018 to 1042 of SEQ ID NO: 1
  % inhibition: 93%
Human Factor 11 mRNA [3]
  IC50: 0.028 µM
Human Factor 11 mRNA [3]; 9.375 nM, relative to untreated control cells
  percent inhibition of Factor 11 at 9.375 nM: 29%
Human Factor 11 mRNA [3]; 18.75 nM, relative to untreated control cells
  percent inhibition of Factor 11 at 18.75 nM: 44%
Human Factor 11 mRNA [3]; 37.5 nM, relative to untreated control cells
  percent inhibition of Factor 11 at 37.5 nM: 57%
Human Factor 11 mRNA [3]; 75 nM, relative to untreated control cells
  percent inhibition of Factor 11 at 75 nM: 67%
Human Factor 11 mRNA [4]
  IC50: 6.9 µM
Human Factor 11 mRNA [4]; 0.7 μM, relative to untreated control cells
  percent inhibition of Factor 11 at 0.7 μM: 0%
Human Factor 11 mRNA [4]; 2.2 μM, relative to untreated control cells
  percent inhibition of Factor 11 at 2.2 μM: 5%
Human Factor 11 mRNA [4]; 6.7 μM, relative to untreated control cells
  percent inhibition of Factor 11 at 6.7 μM: 52%
Human Factor 11 mRNA [4]; 20 μM, relative to untreated control cells
  percent inhibition of Factor 11 at 20 μM: 81%
Human Factor 11 mRNA [2]; [5]
  % inhibition: 84%

## 413519 (antisense eA*eT*eG*eG*eA*dG*dA*d[5mC]*dA*dT*dT*d[5mC]*dA*dT*dT*eT*e[5mC]*e[5mC]*eA*e[5mC]) [compound 413519]
Human Factor 11 mRNA [2]; [6]
  % inhibition: 59%

## 413520 (antisense eG*e[5mC]*eT*e[5mC]*eT*dG*dA*dG*dA*dG*dT*dT*d[5mC]*d[5mC]*dA*eA*eT*eT*e[5mC]*eA) [compound 413520]
Human Factor 11 mRNA [2]; [6]
  % inhibition: 52%

## 413521 (antisense e[5mC]*eT*eG*eG*eG*dA*dA*dG*dG*dT*dG*dA*dA*dT*dT*eT*eT*eT*eA*eG) [compound 413521]
Human Factor 11 mRNA [2]; [6]
  % inhibition: 62%

## 413522 (antisense eT*e[5mC]*eA*eA*eG*dA*dG*dT*d[5mC]*dT*dT*d[5mC]*dA*dT*dG*e[5mC]*eT*eA*e[5mC]*e[5mC]) [compound 413522]
Human Factor 11 mRNA [2]; [6]
  % inhibition: 42%

## 413523 (antisense eT*e[5mC]*eA*eG*eT*dT*dT*dA*d[5mC]*d[5mC]*dT*dG*dG*dG*dA*eT*eG*e[5mC]*eT*eG) [compound 413523]
Human Factor 11 mRNA [2]; [6]
  % inhibition: 61%

## 413524 (antisense eG*eA*e[5mC]*eA*eT*dT*dA*dT*dA*d[5mC]*dT*d[5mC]*dA*d[5mC]*d[5mC]*eA*eT*eT*eA*eT) [compound 413524]
Human Factor 11 mRNA [2]; [6]
  % inhibition: 7%

## 413525 (antisense eG*eT*eA*eT*eA*dA*dA*dT*dG*dT*dG*dT*d[5mC]*dA*dA*eA*eT*eT*eA*eA) [compound 413525]
Human Factor 11 mRNA [2]; [6]
  % inhibition: 43%

## 413526 (antisense eG*eT*eA*eA*eA*dG*dT*dT*dT*dT*dA*d[5mC]*d[5mC]*dT*dT*eA*eA*e[5mC]*e[5mC]*eT) [compound 413526]
Human Factor 11 mRNA [2]; [6]
  % inhibition: 47%

## 413527 (antisense e[5mC]*e[5mC]*eA*eT*eA*dA*dT*dG*dA*dA*dG*dA*dA*dG*dG*eA*eA*eG*eG*eG) [compound 413527]
Human Factor 11 mRNA [2]; [6]
  % inhibition: 52%

## 413528 (antisense eT*eT*eA*eA*eG*dT*dT*dA*d[5mC]*dA*dT*dT*dG*dT*dA*eG*eA*e[5mC]*e[5mC]*eA) [compound 413528]
Human Factor 11 mRNA [2]; [6]
  % inhibition: 48%

## 413529 (antisense eT*eG*eT*eG*eT*dG*dG*dG*dT*d[5mC]*d[5mC]*dT*dG*dA*dA*eA*eT*eT*e[5mC]*eT) [compound 413529]
Human Factor 11 mRNA [2]; [6]
  % inhibition: 52%

## 413530 (antisense eA*eT*e[5mC]*eT*eT*dG*dT*dA*dA*dT*dT*dA*d[5mC]*dA*d[5mC]*eA*e[5mC]*e[5mC]*e[5mC]*e[5mC]) [compound 413530]
Human Factor 11 mRNA [2]; [6]
  % inhibition: 27%

Source: patent US20230263822A1, “MODULATION OF FACTOR 11 EXPRESSION” (Ionis Pharmaceuticals, Inc., priority 2008, published 2023)
